Data set [1] is described as follows: Formation of aqueous solutions. Type of data set: physicochemical. Particulars: in water.
For a further data set, the system named is Borrelia burgdorferi. Kind of data set: MIC, Borrelia burgdorferi. The data set is classed as cell-based.
The test system of the next data set is Trichomonas vaginalis. Kind of data set: MIC, Trichomonas vaginalis. Type of data set: cell-based.
A further data set relates to Legionella pneumophila. Type of data set: cell-based.
The test system of another data set is gram-negative bacteria. In words: Agar dilution MIC, gram-negative bacteria. Type of data set: cell-based. (Agar dilution tests growth on a series of plates holding different concentrations.)
The subject of data set [2] is various clinical and laboratory strains of staphylococci. In words: Bactericidal activity, staphylococci. The data set is classed as cell-based.
Data set [3] deals with various strains of streptococci. Kind of data set: Agar dilution MIC, streptococci. The data set is classed as cell-based.
A further data set deals with Enterococcus faecalis. Kind of data set: Agar dilution MIC, Enterococcus faecalis. Type of data set: cell-based. Particulars: printed for E. faecalis and E. faecium together.
A further data set concerns bacteria. The data set is classed as cell-based.
The next data set concerns Mycoplasma sp. In words: MIC, Mycoplasma sp. Type of data set: cell-based.
For another data set, the system named is L. longbeacheae. In words: MIC, L. longbeacheae. The data set is classed as cell-based.
Data set [4] relates to methicillin-resistant staphylococci. The data set is classed as cell-based.
In a further data set the test system is Enterococcus faecium. In words: Agar dilution MIC, Enterococcus faecium. Type of data set: cell-based. The conditions noted are these: printed for E. faecalis and E. faecium together.
The subject of data set [5] is enterococci resistant to vancomycin. Kind of data set: microbe, parasite or virus in culture. The data set is classed as cell-based.
For data set [6], the system named is methicillin-susceptible staphylococci. In words: Agar dilution MIC, methicillin-susceptible staphylococci. Type of data set: cell-based.
In the next data set the test system is E. faecalis 88032810. Kind of data set: Mouse protection model, PD50 (Table 4), E. faecalis 88032810. The data set is classed as in vivo, Enterococcus faecalis (infection in CF1 mice). Particulars: read-out: PD50. The text has this:
(§1) PD 50 Valves Showing Efficacy of Composition Containing the
(§2) Compound of Formula III Against Bacterial Infections^1 in CF1
(§3) ^1 Injections were by IP route
(§4) ^2 CFI mice are Charles River CFI, ca 20 g while male mice
(§5) ^4 PD50 Dosing routes for drugs: IV for A, B and C; SC for D in
(§6) ^5. Multiple of one LD100 (lethal dose to kill 100% of animals) of
(§7) organism given to mice. (Measure of severity of the infection.)
(§8) See Table 4 for PD50 values for the compositions of the compound of formula III including a preferred composition of the present invention (Drug B) compared to those for vancomycin (Drug C) and amikacin (drug D).

For data set [7], the system named is E. faecalis 91031103 (Vancomycin resistant). Kind of data set: Mouse protection model, PD50 (Table 4), vancomycin resistant E. faecalis 91031103. Type of data set: in vivo, Enterococcus faecalis (infection in CF1 mice). Particulars: Enterococcus faecalis, read-out: PD50.
Excerpt: as §1, §2, §3, §4, §5, §6, §7, §8

The nature of data set [8]: pH of aqueous solutions formed with bases. The data set is classed as physicochemical.
In the next data set the test system is S. aureus 78100502. Kind of data set: Mouse protection model, PD50 (Table 4), S. aureus 78100502. Particulars: Staphylococcus aureus, drug IV, 20 × LD, 2.2 × 10^8 CFU/mouse IP. Type of data set: in vivo, Staphylococcus aureus (infection in CF1 mice).
Excerpt: as §1, §2, §3, §4, §5, §6, §7, §8

A further data set has as its system S. aureus 85111205. In words: Mouse protection model, PD50 (Table 4), S. aureus 85111205. The data set is classed as in vivo, Staphylococcus aureus (infection in CF1 mice). The conditions noted are these: Staphylococcus aureus, 85111205, iv, read-out: PD50.
Excerpt: as §1, §2, §3, §4, §5, §6, §7, §8

Setting [9] is: agar dilution, Mueller-Hinton agar.

This is an account of results in patent US5776912A, “Lipophilic oligosaccharide antibiotic compositions” (Schering Corporation, priority 1996, dated 1998).

Where a name gives a salt, the structure may show the parent alone. Read-outs that look alike come from different tables or passages of the source.

On to `[Ba+2].[OH-].[OH-]` [barium hydroxide], for which the “formation of aqueous solution” value in data set [1] is given as “did not form aqueous solutions”.

Consider “56-deacetyl-57-demethyl-45-O-de(2-methyl-1 -oxopropyl)-12-O-(2,3,6-trideoxy-3-C-methyl-4-O-methyl-3-nitro-α-L-arabino-hexopyransoyl)-flambamycin 56-(2,4-dihydroxy-6-methylbenzoate) [compound of Formula III]”, for which the MICs was under 0.49 µg/mL against Borrelia burgdorferi; over 192 µg/mL in the data set with Trichomonas vaginalis; 2.5 µg/mL with Legionella pneumophila; under 0.5 µg/mL in data set [3]; 200 µg/mL in the data set with Mycoplasma sp.; 2.5 µg/mL in the data set on L. longbeacheae. For the same compound, the “GMM (geometric mean MIC)” value in the data set on gram-negative bacteria was over 760 µg/mL; in the data set with Enterococcus faecalis, 0.49 µg/mL; in [4] (setting [9]) it was 0.1 µg/mL; in the data set on Enterococcus faecium it was 0.49 µg/mL; in data set [6] (setting [9]) it was 0.5 µg/mL. Further, the bactericidal activity result in [2] was “moderate bactericidal activity”. Also, in the data set on bacteria, the “cross resistance with other antibiotics” value is given as “No cross resistance with other antibiotics was observed”. For the same compound, the “potency relative to vancomycin” value in data set [4] (more potent than vancomycin) and in [6] (more potent than vancomycin) was 2 fold in each case. Further, in data set [5] (enterococci resistant to vancomycin), the “activity (in words)” value was “good activity”.

Regarding `[Ca+2].[OH-].[OH-]` [calcium hydroxide], in data set [1], the “formation of aqueous solution” value is given as “did not form aqueous solutions”.

As to `NCC[C@H](O)C(=O)N[C@@H]1C[C@H](N)[C@@H](O[C@H]2O[C@H](CN)[C@@H](O)[C@H](O)[C@H]2O)[C@H](O)[C@H]1O[C@H]1O[C@H](CO)[C@@H](O)[C@H](N)[C@H]1O` [Drug D, Amikacin], the ED50 with E. faecalis 88032810 (Enterococcus faecalis, 88032810, drug SC, 10 × LD, 9.7 × 10^8 CFU/mouse IP) is 115 mg/kg; in data set [7] (drug SC, 1.7 × LD, 1.5 × 10^9 CFU/mouse IP), 49 mg/kg.

As for `NCCCC[C@H](N)C(=O)O` [Lysine], the “pH of aqueous solution” value in data set [8] is listed as “less than 9.3”.

With `CN[C@H](CC(C)C)C(=O)N[C@H]1C(=O)N[C@@H](CC(N)=O)C(=O)N[C@H]2C(=O)N[C@H]3C(=O)N[C@H](C(=O)N[C@H](C(=O)O)c4cc(O)cc(O)c4-c4cc3ccc4O)[C@H](O)c3ccc(c(Cl)c3)Oc3cc2cc(c3O[C@@H]2O[C@H](CO)[C@@H](O)[C@H](O)[C@H]2O[C@H]2C[C@](C)(N)[C@H](O)[C@H](C)O2)Oc2ccc(cc2Cl)[C@H]1O` [Drug C, Vancomycin HCl], the ED50 with E. faecalis 88032810 (Enterococcus faecalis, 88032810, iv) was 10 mg/kg; in the data set on S. aureus 78100502, 6 mg/kg; with S. aureus 85111205 it was 26 mg/kg; in data set [7] (iv), 100 mg/kg. Further, the MIC in [5] (read-out: MICs) was over 128 µg/mL.
